Measured values: publication PMC6600414, “Pharmacokinetics and Tissue Distribution of a Novel Bis-Chelated Gold(I) Diphosphine Compound, Bis(2,3-bis(tert-butylmethylphosphino)Quinoxaline)Aurate(I), in Rats” (Molecules, 2019)

Legend:
[1] = Pharmacokinetic study in SD rats after intravenous administration (plasma, LC-MS/MS); type: in vivo, Spague-Dawley rats; conditions: for AUC0-∞ / AUC0–t / C5min: rat plasma; for C5min: n = 6; for CL/F / V/F / t1/2: rat
Method: (§1) The analyte of GC20 in rat biological samples was extracted using one-step protein precipitation. 50 μL of rat plasma or rat tissue homogenate was treated with 250 μL methanol containing IS (375 ng/mL). Vortex for 5 min to completely precipitate the proteins contained in the biological matrix. The mixture was then centrifuged at 18,000 rpm for 10 min (Sorvall Biofuge Stratos, Waltham, MA, USA), and 5 μL supernatant was injected for analysis.
Twenty-four Spague-Dawley rats (twelve male and twelve female, 6–8 weeks old) were purchased from Shanghai SLAC Laboratory Animal Co., Ltd. (Shanghai, China). Animals were housed in an environment which controlled room temperature at 22 ± 2 °C and humidity at 55 ± 5%. Animals received 12/12 h light/dark cycle. Prior to the experiment, animals were fed a standard diet for one week to adapt to the laboratory conditions. Animal welfare and experimental procedures were strictly in accordance with the Guidelines of Animal Experiments of China Pharmaceutical University (Nanjing, China) and approved by the Animal Ethics Committee.
All rats were randomly divided into four groups, each group of six (three male and three female in each group). Three groups consisted of rats that received a single intravenous administration of GC20 at a single dose of 1, 2 or 4 mg/kg, while the fourth group consisted of rats that received a dose of 2 mg/kg on seven consecutive days. The doses for single administration was determined according to the pharmacodynamic doses and toxic doses of GC20 in animals reported in the literature. The dose for multiple administrations was selected from the intermediate dose of a single administration. Dose solutions were prepared with 10% glucose solution. Before administration, rats fasted for 12 h. Blood samples (150 μL) were collected into tubes containing heparin (as an anticoagulant) via the ophthalmic veins at 0 min (i.e., before dosing), 5 min, 10 min, 15 min, 30 min, 1 h, 2 h, 4 h, 6 h, 8 h, 12 h, 24 h, 36 h, 48 h and 72 h. Then, the tubes were centrifuged at 8000 rpm for 5 min to separate the plasma. Plasma samples were then stored at −80 °C until further analysis. The pharmacokinetic parameters were calculated by Phoenix WinNonlin 6.0 (Pharsight, Mountain View, CA, USA).

[2] = Tissue distribution in rats after single intravenous administration; type: in vivo, SD rats; conditions: single i.v. 2 mg/kg
Method: as §1
Eighteen SD rats (nine male and nine female, 6–8 weeks old) were purchased from Shanghai SLAC Laboratory Animal Co., Ltd. (Shanghai, China). After one week of adaptation, all rats were randomly divided into three groups, each group of six (three male and three female in each group). All rats were administrated GC20 solution at a single dose of 2 mg/kg vial the tail vein. The administered dose for tissue distribution was selected from the intermediate dose of single administration in the pharmacokinetic study. Blood samples were first collected via the ophthalmic veins and then rats were sacrificed to harvest tissues (i.e., heart, liver, spleen, lungs, kidneys, stomach, small intestine, brain, skin, muscle, fat, testes/ovaries, pancreas, thymus, and leg bones) promptly at 10 min, 2 h, or 12 h after dosing. To eliminate blood and other content, the tissues were thoroughly rinsed in water. Each tissue sample was homogenized into ten-fold volumes of water and then stored at −80 °C until further analysis.

[3] = Stability of GC20 in rat plasma under different storage conditions; type: in vitro ADME; conditions: for Measured Concentration: n = 6
Method: Extraction recovery was calculated by comparing the peak areas of extraction samples and post-extraction spiked samples. Matrix effect was evaluated by comparing the peak areas of post-extraction spiked samples and pure standard solutions. Post-extraction spiked samples were prepared as follows: Adding standard working solution into the mixed solution after protein precipitation of blank plasma to yield equivalent concentrations to corresponding extraction samples. Six replicates at three concentration levels were used for stability validation under a variety of storage and handling conditions. Samples were subjected to three freeze-thaw cycles, frozen at −80 °C for 7 days and 60 days, and storing at room temperature for 12 h. Post-preparative stability was evaluated by reanalyzing post-extraction samples kept in the autosampler at 4 °C for 48 h.

[4] = test system: broad spectrum of cancer cell lines, including cisplatin-resistant ones; set-up: method as in PMID 23362983; conditions: cited from earlier work
[5] = set-up: method as in PMID 23362983; conditions: cited from earlier work
[6] = multiple dose i.v. 2 mg/kg on seven consecutive days
[7] = post-extraction samples, autosampler 48 h at 4 °C, spiked 50 ng/mL
[8] = post-extraction samples, autosampler 48 h at 4 °C, spiked 1000 ng/mL
[9] = rat plasma, frozen (−80 °C) for 7 days, spiked 50 ng/mL
[10] = rat plasma, frozen (−80 °C) for 7 days, spiked 1000 ng/mL
[11] = rat plasma, frozen (−80 °C) for 60 days, spiked 2 ng/mL
[12] = rat plasma, frozen (−80 °C) for 60 days, spiked 50 ng/mL
[13] = rat plasma, frozen (−80 °C) for 60 days, spiked 1000 ng/mL
[14] = rat plasma, room temperature for 12 h, spiked 2 ng/mL
[15] = rat plasma, room temperature for 12 h, spiked 50 ng/mL
[16] = rat plasma, room temperature for 12 h, spiked 1000 ng/mL
[17] = rat plasma, three freeze-thaw cycles, spiked 2 ng/mL
[18] = rat plasma, three freeze-thaw cycles, spiked 50 ng/mL
[19] = rat plasma, three freeze-thaw cycles, spiked 1000 ng/mL

AUC0-∞ [1, 6]: 6936.7 ± 1005.4 ng·h/mL
AUC0–t ([1]; multiple dose i.v. 2 mg/kg on seven consecutive days, 0–24 h): 4551.2 ± 440.3 ^# h*ng/mL
C5min [1, 6]: 3645.8 ± 388.3 ng/mL
AUC0-∞ ([1]; single dose i.v. 1 mg/kg): 1457.0 ± 354.5 ng·h/mL
AUC0–t ([1]; single dose i.v. 1 mg/kg, 0–72 h): 1419.9 ± 345.5 ng·h/mL
C5min ([1]; single dose i.v. 1 mg/kg): 1564.6 ± 387.5 ng/mL
AUC0-∞ ([1]; single dose i.v. 2 mg/kg): 2540.5 ± 308.6 ng·h/mL
AUC0–t ([1]; single dose i.v. 2 mg/kg, 0–72 h): 2466.4 ± 298.3 ng·h/mL
C5min ([1]; single dose i.v. 2 mg/kg): 2657.6 ± 632.7 ng/mL
AUC0-∞ ([1]; single dose i.v. 4 mg/kg): 7562.2 ± 2709.6 ng·h/mL
AUC0–t ([1]; single dose i.v. 4 mg/kg, 0–72 h): 7237.1 ± 2695.0 ng·h/mL
C5min ([1]; single dose i.v. 4 mg/kg): 5902.6 ± 1955.2 ng/mL
CL/F [1, 6]: 4.83 ± 0.67 mL/min/kg
V/F [1, 6]: 10.6 ± 1.7 L/kg
t1/2 [1, 6]: 25.1 ± 3.0 h
CL/F ([1]; single dose i.v. 1 mg/kg): 12 ± 3.17 mL/min/kg
V/F ([1]; single dose i.v. 1 mg/kg): 11.89 ± 3.35 L/kg
t1/2 ([1]; single dose i.v. 1 mg/kg): 11.33 ± 0.57 h
CL/F ([1]; single dose i.v. 2 mg/kg): 13.3 ± 1.67 mL/min/kg
V/F ([1]; single dose i.v. 2 mg/kg): 13.00 ± 2.39 L/kg
t1/2 ([1]; single dose i.v. 2 mg/kg): 11.24 ± 0.75 h
CL/F ([1]; single dose i.v. 4 mg/kg): 10 ± 4 mL/min/kg
V/F ([1]; single dose i.v. 4 mg/kg): 11.11 ± 5.28 L/kg
t1/2 ([1]; single dose i.v. 4 mg/kg): 12.58 ± 1.80 h
accumulation after multiple doses ([1]; rats, consecutive administration for 7 days): accumulated in rats after multiple doses
elimination half-life after multiple doses relative to single administration ([1]; rats, i.v. 2 mg/kg for 7 days vs single administration): twice that after a single administration
elimination half-life ([1]; rats, single administration of low, medium and high doses (i.v.)): 11 to 13 h
tissue with the lowest concentration ([2]; 10 min, 2 h, 12 h): lowest in the brain
tissues with the highest concentrations ([2]; 10 min, 2 h, 12 h): lung, spleen, liver, and pancreas
time of highest tissue concentration ([2]; spleen, liver, kidney and heart): 2 h
Measured Concentration ([3]; post-extraction samples, autosampler 48 h at 4 °C, spiked 2 ng/mL): 1.8 ± 0.0 ng/mL
Accuracy (RE%) [3, 7]: −9.5%
Measured Concentration [3, 7]: 45.2 ± 0.1 ng/mL
Accuracy (RE%) [3, 8]: −9.9%
Measured Concentration [3, 8]: 901.3 ± 17.1 ng/mL
Accuracy (RE%) ([3]; rat plasma, frozen (−80 °C) for 7 days, spiked 2 ng/mL): 8.2%
Accuracy (RE%) [3, 9]: 4.1%
Measured Concentration [3, 9]: 52.0 ± 0.9 ng/mL
Accuracy (RE%) [3, 10]: 3.1%
Measured Concentration [3, 10]: 1030.5 ± 15.9 ng/mL
Accuracy (RE%) [3, 11]: −8.9%
Measured Concentration [3, 11]: 1.8 ± 0.1 ng/mL
Accuracy (RE%) [3, 12]: −5.4%
Measured Concentration [3, 12]: 47.3 ± 0.6 ng/mL
Accuracy (RE%) [3, 13]: −3.0%
Measured Concentration [3, 13]: 970.1 ± 27.3 ng/mL
Accuracy (RE%) [3, 14]: −9.2%
Measured Concentration [3, 14]: 1.8 ± 0.1 ng/mL
Accuracy (RE%) [3, 15]: 2.0%
Measured Concentration [3, 15]: 51.0 ± 0.4 ng/mL
Accuracy (RE%) [3, 16]: 2.1%
Measured Concentration [3, 16]: 1020.7 ± 23.6 ng/mL
Accuracy (RE%) [3, 17]: 8.7%
Measured Concentration [3, 17]: 2.2 ± 0.1 ng/mL
Accuracy (RE%) [3, 18]: 2.3%
Measured Concentration [3, 18]: 51.1 ± 0.3 ng/mL
Accuracy (RE%) [3, 19]: 0.2%
Measured Concentration [3, 19]: 1001.8 ± 19.0 ng/mL
stability under typical sample storage and processing conditions ([3]; rat plasma, room temperature 12 h, −80 °C 7 and 60 days, three freeze-thaw cycles, autosampler 4 °C 48 h): stable
Compound: CC(C)(C)[P+]1(C)c2nc3ccccc3nc2[P+](C)(C(C)(C)C)[Au-3]12[P+](C)(C(C)(C)C)c1nc3ccccc3nc1[P+]2(C)C(C)(C)C (centres unmarked) [GC20, Bis(2,3-bis(tert-butylmethylphosphino)quinoxaline)aurate(I)]
inhibitory effect on proliferation ([4]; broad spectrum of cancer cell lines, including cisplatin-resistant ones): strong inhibitory effect
selectivity between cancer cells and normal cells [4]: remarkable selectivity
toxicity in animal models as compared to cisplatin [5]: lower toxicity
